# From PMC13128454, “Mutant p53 protein accumulation is selectively targetable by proximity-inducing drugs” (Nature Chemical Biology, 2025)
# Where “and” joins values, the source holds several entries; their conditions need not be identical. Equal entries are not always repeated. Where two headings read alike, the source gives them in different places.
# Columns and labels:
# Assay type in all cases: cell-based
# [1] = system: 293T cells expressing a dox inducible Halo–p53-Y220C ΔTAD–mCherry; assay: viability with doxycycline-inducible construct
# Protocol: (§1) Cells were plated in 384-well plates (typically 1,500 cells per well) with varying concentrations of compounds, with a total volume of 50 μl per well. CTG reagent was added (25 μl) to the solutions, mixed and read out using an EnVision 2105 multimode plate reader.
# [2] = viability with doxycycline-inducible construct; conditions: human, dox 0, read-out: mean_norm (normalized viability)
# Protocol: as §1
# [3] = system: Halo–p53-Y220C ΔTAD–mCherry 293T cells; assay: annexin–PI staining; conditions: for P3_avg (P3 = early apoptotic) / P5_avg (P5 = late apoptotic): Cell_Line Y220C, proportion of cells; for avgprop_P3 / avgprop_P4 / avgprop_P5 / avgprop_P2 / P2_viable / P3_AnnexinPos_PIneg / P4_PIpos_AnnexinNeg / P5_PIpos_Annexinpos / prop_P3 / prop_P4 / prop_P5 / prop_P2: Y220C; for avgprop_P3: average proportion AnnexinPos PIneg; for avgprop_P4: average proportion PIpos AnnexinNeg; for avgprop_P5: average proportion PIpos Annexinpos; for avgprop_P2: average proportion viable; for P2_viable / P3_AnnexinPos_PIneg / P4_PIpos_AnnexinNeg / P5_PIpos_Annexinpos: event count; for P2_viable / P3_AnnexinPos_PIneg / P4_PIpos_AnnexinNeg / P5_PIpos_Annexinpos / prop_P3 / prop_P4 / prop_P5 / prop_P2: single replicate; for prop_P3: proportion AnnexinPos PIneg; for prop_P4: proportion PIpos AnnexinNeg; for prop_P5: proportion PIpos Annexinpos; for prop_P2: proportion viable
# Protocol: Cells were plated in six-well plates and treated with varying concentrations of compounds for 1 day. Cells were stained with annexin V–AF488 and PI following the manufacturer’s instructions (Thermo Fisher, V13241) and analyzed by flow cytometry (Beckman CytoFLEX LX), using untreated cells to establish gates.
# [4] = system: p53 luciferase transcriptional reporter in MFE319 cells; assay: p53 luciferase reporter assay; conditions: for p53 luciferase reporter signal (normalized), replicates: MFE319
# Protocol: (§2) Huh7 and MFE319 cell lines stably expressing a p53 reporter (Addgene, 90363)[59] were generated. Cells were plated in 384-well plates (1,500 cells per well) and treated with varying concentrations of compound. Then, 16 h after treatment, firefly luciferase substrate was added to the cells and luminescence was monitored using an EnVision 2105 multimode plate reader.
# [5] = system: p53 luciferase transcriptional reporter in Huh7 cells; assay: p53 luciferase reporter assay; conditions: for p53 luciferase reporter signal (normalized), replicates: Huh7
# Protocol: as §2
# [6] = system: MFE319 cells stably expressing sgTP53–Cas9–EGFP versus parental MFE319 cells; assay: flow-cytometry growth competition
# Protocol: (§3) Cells with and without a fluorescent marker (for example, Halo–p53–mCherry) were mixed and the resulting solution was plated in six-well plates or 10-cm dishes at low density; compound was added at varying concentrations. After reaching confluence, cells were passaged and retreated with compound if needed. Otherwise, cells were trypsinized, washed and resuspended in complete growth medium in 96-well plates or tubes for flow cytometry. Untreated cell mixtures were used to establish gates separating the fluorophore^+/− populations. Analysis was conducted on a CytoFLEX LX flow cytometer.
# [7] = system: Calu-1 cells stably expressing Halo–p53-R273H (FL)–mCherry versus parental Calu-1 cells; assay: flow-cytometry growth competition; conditions: 7 days
# Protocol: as §3
# [8] = system: Halo–p53-Y220C ΔTAD–mCherry 293T cells versus parental 293T cells; assay: flow-cytometry growth competition; conditions: for EC50: Homo sapiens, HEK-293T; for normalized_mCherry_percentage: Y220C, day 8, normalized to DMSO
# Protocol: as §3
smiles,measurement,setting,value
"CC[C@@H]1C(=O)N(C)c2cnc(Nc3ccc(C(=O)NCCOCCOCCOCCOCCC(=O)N4CCC(Nc5cccc6c5cc(C#CCNc5ccc(S(C)(=O)=O)cc5OC)n6CC(F)(F)F)CC4)cc3OC)nc2N1C1CCCC1 [p53-01, PMV6-PEG4-BI2536]",change of potency upon doxycycline induction,"[1]; dox 0, 100, 1000 ng/mL, 4 days",approximately twofold
same,mean_norm (normalized viability),"[1]; dox 0, Concentration 39.0625",0.9911
same,mean_norm (normalized viability),"[1]; dox 0, Concentration 78.125",0.9922
same,mean_norm (normalized viability),"[1]; dox 0, Concentration 10000",0.4681
same,mean_norm (normalized viability),"[1]; dox 100, Concentration 39.0625",0.9915
same,mean_norm (normalized viability),"[1]; dox 100, Concentration 78.125",1.002
same,mean_norm (normalized viability),"[1]; dox 100, Concentration 156.25",0.9543
same,mean_norm (normalized viability),"[1]; dox 100, Concentration 312.5",0.9412
same,mean_norm (normalized viability),"[1]; dox 100, Concentration 625",0.8872
same,mean_norm (normalized viability),"[1]; dox 100, Concentration 1250",0.7055
same,mean_norm (normalized viability),"[1]; dox 100, Concentration 2500",0.6021
same,mean_norm (normalized viability),"[1]; dox 100, Concentration 5000",0.3858
same,mean_norm (normalized viability),"[1]; dox 100, Concentration 10000",0.3055
same,mean_norm (normalized viability),"[1]; dox 1000, Concentration 39.0625",0.9926
same,mean_norm (normalized viability),"[1]; dox 1000, Concentration 78.125",1.004
same,mean_norm (normalized viability),"[1]; dox 1000, Concentration 156.25",1.0052
same,mean_norm (normalized viability),"[1]; dox 1000, Concentration 312.5",0.8955
same,mean_norm (normalized viability),"[1]; dox 1000, Concentration 625",0.8604
same,mean_norm (normalized viability),"[1]; dox 1000, Concentration 1250",0.7628
same,mean_norm (normalized viability),"[1]; dox 1000, Concentration 2500",0.5571
same,mean_norm (normalized viability),"[1]; dox 1000, Concentration 5000",0.3298
same,mean_norm (normalized viability),"[1]; dox 1000, Concentration 10000",0.194
same,viability,[2]; Concentration 156.25,99.3%
same,viability,[2]; Concentration 312.5,95.6%
same,viability,[2]; Concentration 625,95.7%
same,viability,[2]; Concentration 1250,95.8%
same,viability,[2]; Concentration 2500,77.5%
same,viability,[2]; Concentration 5000,60.1%
same,P3_avg (P3 = early apoptotic),[3]; Concentration 0.75,0.07971
same,P5_avg (P5 = late apoptotic),[3]; Concentration 0.75,0.02225
same,P3_avg (P3 = early apoptotic),[3]; Concentration 1.5,0.2575
same,P5_avg (P5 = late apoptotic),[3]; Concentration 1.5,0.07698
same,avgprop_P3,[3]; Concentration 0.75,0.07971
same,avgprop_P4,[3]; Concentration 0.75,0.05038
same,avgprop_P5,[3]; Concentration 0.75,0.02225
same,avgprop_P2,[3]; Concentration 0.75,0.8477
same,P2_viable,[3]; Concentration 0.75,1654 and 1707 and 1670
same,P3_AnnexinPos_PIneg,[3]; Concentration 0.75,165 and 158 and 150
same,P4_PIpos_AnnexinNeg,[3]; Concentration 0.75,95 and 98 and 106
same,P5_PIpos_Annexinpos,[3]; Concentration 0.75,45 and 43 and 44
same,prop_P3,[3]; Concentration 0.75,0.08423 and 0.07876 and 0.07614
same,prop_P4,[3]; Concentration 0.75,0.04849 and 0.04885 and 0.05381
same,prop_P5,[3]; Concentration 0.75,0.02297 and 0.02144 and 0.02234
same,prop_P2,[3]; Concentration 0.75,0.8443 and 0.8509 and 0.8477
same,avgprop_P3,[3]; Concentration 1.5,0.2575
same,avgprop_P4,[3]; Concentration 1.5,0.06957
same,avgprop_P5,[3]; Concentration 1.5,0.07698
same,avgprop_P2,[3]; Concentration 1.5,0.5959
same,P2_viable,[3]; Concentration 1.5,912 and 887 and 871
same,P3_AnnexinPos_PIneg,[3]; Concentration 1.5,381 and 378 and 395
same,P4_PIpos_AnnexinNeg,[3]; Concentration 1.5,104 and 92 and 116
same,P5_PIpos_Annexinpos,[3]; Concentration 1.5,109 and 111 and 125
same,prop_P3,[3]; Concentration 1.5,0.253 and 0.2575 and 0.2621
same,prop_P4,[3]; Concentration 1.5,0.06906 and 0.06267 and 0.07697
same,prop_P5,[3]; Concentration 1.5,0.07238 and 0.07561 and 0.08295
same,prop_P2,[3]; Concentration 1.5,0.6056 and 0.6042 and 0.578
same,induction of p53 reporter,[4]; 16 h,no induction of luciferase activity
same,"p53 luciferase reporter signal (normalized), replicates",[4]; log Concentration (pM) 4.59176,0.9836 and 1.068 and 1.04 and 1.096 and 1.012 and 0.9977
same,"p53 luciferase reporter signal (normalized), replicates",[4]; log Concentration (pM) 4.89279,1.026 and 1.11 and 0.9977 and 0.9555 and 1.04 and 1.096
same,"p53 luciferase reporter signal (normalized), replicates",[4]; log Concentration (pM) 5.19382,0.9836 and 1.11 and 1.04 and 1.082 (2×) and 1.096
same,"p53 luciferase reporter signal (normalized), replicates",[4]; log Concentration (pM) 5.49485,0.9696 and 0.9977 and 1.012 (2×) and 1.082 and 1.04
same,"p53 luciferase reporter signal (normalized), replicates",[4]; log Concentration (pM) 5.79588,0.9696 and 1.096 (3×) and 1.068 and 0.9274
same,"p53 luciferase reporter signal (normalized), replicates",[4]; log Concentration (pM) 6.09691,1.152 and 1.068 and 1.012 (2×) and 1.124 and 1.04
same,"p53 luciferase reporter signal (normalized), replicates",[4]; log Concentration (pM) 6.39794,0.9977 (2×) and 1.068 and 1.096 and 1.012 and 0.9836
same,"p53 luciferase reporter signal (normalized), replicates",[4]; log Concentration (pM) 6.69897,1.012 (4×) and 0.9977 and 1.04
same,"p53 luciferase reporter signal (normalized), replicates",[4]; log Concentration (pM) 7,1.054 and 0.9836 (2×) and 1.082 (2×) and 0.8431
same,induction of p53 reporter,"[5]; 16 h, PMV6 at doses of 1.25–10 μM",no such effect
same,"p53 luciferase reporter signal (normalized), replicates",[5]; log Concentration (pM) 4.59176,0.9363 (2×) and 1.029 and 0.989 (2×) and 0.8835
same,"p53 luciferase reporter signal (normalized), replicates",[5]; log Concentration (pM) 4.89279,1.081 and 0.9758 and 1.0022 and 1.095 and 1.147 and 0.9363
same,"p53 luciferase reporter signal (normalized), replicates",[5]; log Concentration (pM) 5.19382,0.8967 and 0.9231 and 0.9363 and 0.9758 and 1.095 and 1.081
same,"p53 luciferase reporter signal (normalized), replicates",[5]; log Concentration (pM) 5.49485,1.015 and 0.9363 and 1.029 and 1.0022 and 1.108 and 1.095
same,"p53 luciferase reporter signal (normalized), replicates",[5]; log Concentration (pM) 5.79588,1.055 (2×) and 1.095 and 0.9495 and 0.9231 (2×)
same,"p53 luciferase reporter signal (normalized), replicates",[5]; log Concentration (pM) 6.09691,0.9099 and 0.9626 and 0.9231 and 1.0022 and 0.9758 and 0.8835
same,"p53 luciferase reporter signal (normalized), replicates",[5]; log Concentration (pM) 6.39794,0.9495 and 1.029 and 0.9758 and 1.0022 and 1.015 and 1.042
same,"p53 luciferase reporter signal (normalized), replicates",[5]; log Concentration (pM) 6.69897,0.9363 and 0.9231 and 1.042 and 1.095 and 1.068 and 0.8835
same,"p53 luciferase reporter signal (normalized), replicates",[5]; log Concentration (pM) 7,0.9363 and 1.0022 (3×) and 1.015 and 0.9758
same,"merge_avg (growth competition, sheet 4H)",[6]; Concentration (pM) 156250,0.9416
same,"merge_avg (growth competition, sheet 4H)",[6]; Concentration (pM) 312500,0.9268
same,"merge_avg (growth competition, sheet 4H)",[6]; Concentration (pM) 600000,0.9517
same,"merge_avg (growth competition, sheet 4H)",[6]; Concentration (pM) 800000,1.131
same,"merge_avg (growth competition, sheet 4H)",[6]; Concentration (pM) 1000000,1.205
same,"merge_avg (growth competition, sheet 4H)",[6]; Concentration (pM) 1100000,1.344
same,"merge_avg (growth competition, sheet 4H)",[6]; Concentration (pM) 1250000,1.624
same,enrichment of EGFP^+ (TP53-knockout) population,"[6]; day 9, p53-01 at doses between 800 nM and 1.25 μM",significantly enrich an EGFP^+ population
same,activity in competition,[7],did not observe any activity
same,mCherry_percent,"[8]; 1 uM, 8 days, untreated 39.76",6.93%
same,"Emax, decline in the mCherry^+ fraction",[8]; 8-day competition,21.5 fold
same,EC50,"[8]; 192 h, 8-day competition, read-out: EC50 growth competition",443 nM
same,EC50,"[8]; 240 h, growth competition analyzed on day 10, n = 3, read-out: Competition EC50",850 nM
same,normalized_mCherry_percentage,[8]; 62.5 nM,97.27%
same,normalized_mCherry_percentage,[8]; 125 nM,95.36%
same,normalized_mCherry_percentage,[8]; 250 nM,82.43%
same,normalized_mCherry_percentage,[8]; 500 nM,42.51%
same,normalized_mCherry_percentage,[8]; 1 uM,16.67%
same,normalized_mCherry_percentage,[8]; 2 uM,4.655%
same,selection in growth competition,"[8]; dosed between 250 nM and 2 μM, 8-day",strong selection against p53-Y220C^+ cells
same,"mCherry^+ percentage in competition, replicate","[8]; p53-01 250 nM, untreated 28.89, 29.94, 29.02",3.07 and 3.6 and 3.2
same,decline in mCherry^+ percentage,[8]; p53-01 alone at 250 nM,8.9 fold
